Here are results for one compound from PMC10707724, “Dual Effects of 3-epi-betulin from Daphniphyllum glaucescens in Suppressing SARS-CoV-2-Induced Inflammation and Inhibiting Virus Entry” (International Journal of Molecular Sciences, 2023).

Structures are written as SMILES.

Common to all, as to type: cell-based
The subject of one experiment is SARS-CoV-2 SEMpv (D614G). The settings on record: read-out: EC50, pseudovirus entry.
A further experiment concerns SARS-CoV-2 SEMpv (N501Y). As to conditions: read-out: EC50, pseudovirus entry.
The subject of experiment [1] is SARS-CoV-2 Omicron (BA.1). As to the kind of experiment: microbe, parasite or virus in culture. The settings on record: Omicron (BA.1), compared with the other variants.

The EC50 is the concentration that produces a half-maximal response. For `C=C(C)[C@@H]1CC[C@]2(CO)CC[C@]3(C)[C@H](CC[C@@H]4[C@@]5(C)CC[C@@H](O)C(C)(C)[C@@H]5CC[C@]43C)[C@@H]12` [Compound 5, 3-epi-Betulin], the EC50 in the experiment on SARS-CoV-2 SEMpv (D614G) is 12.5 µM; in the experiment on SARS-CoV-2 SEMpv (N501Y), 13.1 µM. For the same compound, in experiment [1], the “inhibition activity against variant, in words” value is listed as “did not perform as well”.
